Earlier results on one compound are cited in PMC4493701, “Quantitative and qualitative analysis of the novel antitumor 1,3,4-oxadiazole derivative (GLB) and its metabolites using HPLC-UV and UPLC-QTOF-MS” (Scientific Reports, 2015).

The test system of this data set is thymidine phosphorylase. Particulars: cited from earlier work.

As for `CC(=O)N1N=C(c2ccc(Br)cc2)OC12C1OC(C)(C)OC1COC21COC(C)(C)O1` (stereo not shown) [GLB, Fructose-based 3-acetyl-2,3-dihydro-1,3,4-oxadiazole], the Thymidine phosphorylase inhibition entry is recorded as “thymidine phosphorylase inhibitor”.
